From patent US10316028B2, “Orexin receptor antagonists” (Heptares Therapeutics Limited, priority 2012, dated 2019) come the findings set out here.

In this assay the target is T1, human Orexin-2 receptor (Homo sapiens, UniProt O43614).
T1 construct: expressed in transfected cells; host or cells: HEK293 cells (transient transfection, Genejuice); membranes
T1 sequence (O43614 1-444): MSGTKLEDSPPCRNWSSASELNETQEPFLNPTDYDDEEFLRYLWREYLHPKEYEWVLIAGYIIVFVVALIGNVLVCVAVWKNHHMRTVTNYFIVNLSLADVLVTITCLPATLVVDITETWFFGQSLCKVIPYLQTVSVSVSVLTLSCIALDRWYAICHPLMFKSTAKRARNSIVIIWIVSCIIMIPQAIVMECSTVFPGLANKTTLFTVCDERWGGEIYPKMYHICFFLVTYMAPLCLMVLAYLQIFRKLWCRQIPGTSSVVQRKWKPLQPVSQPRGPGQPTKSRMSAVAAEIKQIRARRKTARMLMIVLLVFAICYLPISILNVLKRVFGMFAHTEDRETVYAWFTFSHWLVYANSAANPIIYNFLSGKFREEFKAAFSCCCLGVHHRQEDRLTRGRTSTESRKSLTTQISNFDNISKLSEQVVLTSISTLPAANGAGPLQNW
Put plainly: 3H-EMPA radioligand binding assay. The conditions noted are these: 3H-EMPA displacement, membranes of HEK293 cells transfected with human Orexin-2 receptor; KI by Cheng-Prussoff; read-out: OX2 pKi ave (converted). As to the method:
cDNA encoding the human Orexin-2 receptor was transfected into HEK293 cells using the transfection reagent Genejuice (Novagen). Forty-eight hours after transfection, cells were harvested and washed twice with ice cold phosphate-buffered saline. The pellet was resuspended in ice-cold buffer containing 20 mM Tris-HCl, pH 7.4, 1 mM EDTA and homogenised with an Ultraturax for 30 s at maximum speed. After centrifugation at 48,000 g for 30 min at 4° C., the pellet was resuspended and spun again. The final pellet was resuspended and frozen at −80° C. before use. Protein concentration was determined using the BCA protein assay method.
^3H-EMPA Radioligand Binding Assay
At the end of the incubation, membranes were filtered onto a unifilter, a 96-well white microplate with bonded GF/B filter pre-incubated with 0.5% polyethylenimine, with a Tomtec cell harvester and washed 4 times with distilled water. […] Radioactivity on the filter was counted (1 min) on a microbeta counter after addition of 50 µL of scintillation fluid. […] IC50 values were derived from the inhibition curve and the equilibrium dissociation constant (KI) values were calculated using the Cheng-Prussoff equation.
Take `CSc1cccc(N2C(=O)N(C(C)c3ccccc3F)c3ccc(F)cc3S2(=O)=O)c1` (centres unmarked) [Example 63, 7-Fluoro-4-[1-(2-fluorophenyl)ethyl]-2-[3-(methylsulfanyl)phenyl]-2H-1,2,4-benzothiadiazin-3(4H)-one 1,1-dioxide]: the Ki is 832 nM. As for `O=C1N(Cc2c(F)cccc2Cl)c2ccccc2S(=O)(=O)N1CC1CCCCC1` [Example 64, 4-(2-Chloro-6-fluorobenzyl)-2-(cyclohexylmethyl)-2H-1,2,4-benzothiadiazin-3(4H)-one 1,1-dioxide], the figure is 661 nM; as for `N#Cc1ccc(CN2C(=O)N(Cc3c(F)cccc3F)c3ccccc3S2(=O)=O)cc1F` [Example 65, 4-{[4-(2,6-Difluorobenzyl)-1,1-dioxido-3-oxo-3,4-dihydro-2H-1,2,4-benzothiadiazin-2-yl]methyl}-2-fluorobenzonitrile], 200 nM; as for `COc1cccc(CCN2C(=O)N(Cc3c(F)cccc3F)c3ccccc3S2(=O)=O)c1` [Example 66, 4-(2,6-Difluorobenzyl)-2-[2-(3-methoxyphenyl)ethyl]-2H-1,2,4-benzothiadiazin-3(4H)-one 1,1-dioxide], 550 nM. Under `COc1ccc(N2C(=O)N(Cc3ccccc3F)c3ccccc3S2(=O)=O)cc1OC` [Example 67, 2-(3,4-Dimethoxyphenyl)-4-(2-fluorobenzyl)-2H-1,2,4-benzothiadiazin-3(4H)-one 1,1-dioxide] stands 7.08 nM; under `COc1ccc(N2C(=O)N(Cc3c(Cl)cccc3Cl)c3ccccc3S2(=O)=O)cc1OC` [Example 68, 4-(2,6-Dichlorobenzyl)-2-(3,4-dimethoxyphenyl)-2H-1,2,4-benzothiadiazin-3(4H)-one 1,1-dioxide], 0.708 nM; under `COc1cc(OC)cc(N2C(=O)N(Cc3c(F)cccc3Cl)c3ccccc3S2(=O)=O)c1` [Example 69, 4-(2-Chloro-6-fluorobenzyl)-2-(3,5-dimethoxyphenyl)-2H-1,2,4-benzothiadiazin-3(4H)-one 1,1-dioxide], 1.07 nM.

In the case of `COc1cc(OC)cc(N2C(=O)N(Cc3c(Cl)cccc3Cl)c3ccccc3S2(=O)=O)c1` [Example 70, 4-(2,6-Dichlorobenzyl)-2-(3,5-dimethoxyphenyl)-2H-1,2,4-benzothiadiazin-3(4H)-one 1,1-dioxide], the Ki is 2 nM. Under `COc1ccc(N2C(=O)N(Cc3cccc(Cl)c3F)c3ccccc3S2(=O)=O)cc1OC` [Example 71, 4-(3-Chloro-2-fluorobenzyl)-2-(3,4-dimethoxyphenyl)-2H-1,2,4-benzothiadiazin-3(4H)-one 1,1-dioxide] stands 7.08 nM. As for `COc1ccc(N2C(=O)N(Cc3ccc(Cl)cc3F)c3ccccc3S2(=O)=O)cc1OC` [Example 72, 4-(4-Chloro-2-fluorobenzyl)-2-(3,4-dimethoxyphenyl)-2H-1,2,4-benzothiadiazin-3(4H)-one 1,1-dioxide], the figure is 10.5 nM. As for `O=C1N(Cc2c(F)cccc2Cl)c2ccccc2S(=O)(=O)N1c1cccc(SC(F)(F)F)c1` [Example 73, 4-(2-Chloro-6-fluorobenzyl)-2-{3-[(trifluoromethyl)sulfanyl]phenyl}-2H-1,2,4-benzothiadiazin-3(4H)-one 1,1-dioxide], the figure is 2.09 nM; as for `CSc1cccc(N2C(=O)N(Cc3c(F)cccc3Cl)c3ccc(F)cc3S2(=O)=O)c1` [Example 74, 4-(2-Chloro-6-fluorobenzyl)-7-fluoro-2-[3-(methylsulfanyl)phenyl]-2H-1,2,4-benzothiadiazin-3(4H)-one 1,1-dioxide], 11.7 nM; as for `O=C1N(Cc2c(F)cccc2F)c2ccccc2S(=O)(=O)N1c1cccc(SC(F)(F)F)c1` [Example 75, 4-(2,6-Difluorobenzyl)-2-{3-[(trifluoromethyl)sulfanyl]phenyl}-2H-1,2,4-benzothiadiazin-3(4H)-one 1,1-dioxide], 8.32 nM. `CSc1cccc(N2C(=O)N(Cc3c(F)cccc3Cl)c3cc(F)ccc3S2(=O)=O)c1` [Example 76, 4-(2-Chloro-6-fluorobenzyl)-6-fluoro-2-[3-(methylsulfanyl)phenyl]-2H-1,2,4-benzothiadiazin-3(4H)-one 1,1-dioxide]: the Ki is 14.8 nM. Under `COc1ccc(N2C(=O)N(Cc3c(C)cccc3C)c3ccccc3S2(=O)=O)cc1OC` [Example 77, 4-(2,6-Dimethylbenzyl)-2-(3,4-methoxyphenyl)-2H-1,2,4-benzothiadiazin-3(4H)-one 1,1-dioxide] stands 8.91 nM; under `COc1cc(N2C(=O)N(Cc3c(F)cccc3Cl)c3ccccc3S2(=O)=O)cc(OC)c1OC` [Example 78, 4-(2-Chloro-6-fluorobenzyl)-2-(3,4,5-trimethoxyphenyl)-2H-1,2,4-benzothiadiazin-3(4H)-one 1,1-dioxide], 4.07 nM; under `COc1ccc(N2C(=O)N(Cc3c(C)cccc3F)c3ccccc3S2(=O)=O)cc1OC` [Example 79, 4-(2-Fluoro-6-methylbenzyl)-2-(3,4-methoxyphenyl)-2H-1,2,4-benzothiadiazin-3(4H)-one 1,1-dioxide], 0.389 nM. As for `COc1c(C)cc(N2C(=O)N(Cc3ccc(F)cc3Cl)c3ccccc3S2(=O)=O)cc1C` [Example 80, 4-(2-Chloro-4-fluorobenzyl)-2-(4-methoxy-3,5-dimethylphenyl)-2H-1,2,4-benzothiadiazin-3(4H)-one 1,1-dioxide], the Ki was 7.59 nM. Under `COc1c(C)cc(N2C(=O)N(Cc3c(F)cccc3Cl)c3ccccc3S2(=O)=O)cc1C` [Example 81, 4-(2-Chloro-6-fluorobenzyl)-2-(4-methoxy-3,5-dimethylphenyl)-2H-1,2,4-benzothiadiazin-3(4H)-one 1,1-dioxide] stands 0.0832 nM; under `Cc1cc(N2C(=O)N(Cc3c(F)cccc3Cl)c3ccccc3S2(=O)=O)cc(C)c1O` [Example 82, 4-(2-Chloro-6-fluorobenzyl)-2-(4-hydroxy-3,5-dimethylphenyl)-2H-1,2,4-benzothiadiazin-3(4H)-one 1,1-dioxide], 3.31 nM; under `CSc1cccc(N2C(=O)N(Cc3cc(C)nn3C)c3ccccc3S2(=O)=O)c1` [Example 83, 4-[(1,3-Dimethyl-1H-pyrazol-5-yl)methyl]-2-[3-(methylsulfanyl)phenyl]-2H-1,2,4-benzothiadiazin-3(4H)-one 1,1-dioxide], 295 nM. Under `COc1ccc(N2C(=O)N(Cc3c(C)ccnc3C)c3ccccc3S2(=O)=O)cc1OC` [Example 84, 2-(3,4-Dimethoxyphenyl)-4-[(2,4-dimethylpyridin-3-yl)methyl]-2H-1,2,4-benzothiadiazin-3(4H)-one 1,1-dioxide] stands 490 nM. As for `COc1ccc(N2C(=O)N(Cc3c(F)cncc3F)c3ccccc3S2(=O)=O)cc1OC` [Example 85, 4-[(3,5-Difluoropyridin-4-yl)methyl]-2-(3,4-dimethoxyphenyl)-2H-1,2,4-benzothiadiazin-3(4H)-one 1,1-dioxide], the figure is 60.3 nM; as for `COc1ccc(N2C(=O)N(Cc3ncc(C)cc3C)c3ccccc3S2(=O)=O)cc1OC` [Example 86, 4-[(3,5-Dimethylpyridin-2-yl)methyl]-2-(3,4-dimethoxyphenyl)-2H-1,2,4-benzothiadiazin-3(4H)-one 1,1-dioxide], 74.1 nM; as for `CSc1cccc(N2C(=O)N(Cc3ncccc3C)c3ccccc3S2(=O)=O)c1` [Example 87, 4-[(3-Methylpyridin-2-yl)methyl]-2-[3-(methylsulfanyl)phenyl]-2H-1,2,4-benzothiadiazin-3(4H)-one 1,1-dioxide], 35.5 nM. As for `COc1ccc(N2C(=O)N(Cc3ncccc3F)c3ccccc3S2(=O)=O)cc1OC` [Example 88, 2-(3,4-Dimethoxyphenyl)-4-[(3-fluoropyridin-2-yl)methyl]-2H-1,2,4-benzothiadiazin-3(4H)-one 1,1-dioxide], the Ki was 28.2 nM. Turning to `COc1ccc(N2C(=O)N(Cc3ncc(Br)cc3F)c3ccccc3S2(=O)=O)cc1OC` [Example 89, 4-[(5-Bromo-3-fluoropyridin-2-yl)methyl]-2-(3,4-dimethoxyphenyl)-2H-1,2,4-benzothiadiazin-3(4H)-one 1,1-dioxide], the Ki was 38.9 nM.

For `COc1ccc(N2C(=O)N(Cc3c(Cl)cncc3Cl)c3ccccc3S2(=O)=O)cc1OC` [Example 90, 4-[(3,5-Dichloropyridin-4-yl)methyl]-2-(3,4-dimethoxyphenyl)-2H-1,2,4-benzothiadiazin-3(4H)-one 1,1-dioxide], the Ki is 3.02 nM. Regarding `COc1ccc(N2C(=O)N(Cc3c(F)cccc3Cl)c3ccncc3S2(=O)=O)cc1OC` [Example 91, 4-(2-Chloro-6-fluorobenzyl)-2-(3,4-dimethoxyphenyl)-2H-pyrido[4,3-e][1,2,4]thiadiazin-3(4H)-one 1,1-dioxide], the Ki is 38 nM.
